Where two headings read alike, the source gives them in different places.
Columns and labels:
[1] = test system: HL-60 human leukaemia; experiment: Inhibition of tumor cell proliferation at 10 μM, Model A: MTT method; assay type: cell-based; conditions: HL-60, MTT method, read-out: Model A Inhibitory rate (%)
Excerpt: (§1) The evaluation of the compounds according to the present invention on the inhibition rate of the proliferation of four different tumor cells, using the routine method for anti-tumor activity tests in the pharmaceutical filed, for example the method described in the following literature: (J. Immuno/Method, 1983, 65, 55).

[2] = test system: BGC-823 human gastric cancer; experiment: Inhibition of tumor cell proliferation at 10 μM, Model B: SRB method; assay type: cell-based; conditions: BGC-823, SRB method, read-out: Model B Inhibitory rate (%)
Excerpt: as §1

[3] = test system: Bel-7402 human liver cancer; experiment: Inhibition of tumor cell proliferation at 10 μM, Model C: SRB method; assay type: cell-based; conditions: Bel-7402, SRB method, read-out: Model C Inhibitory rate (%)
Excerpt: as §1

[4] = test system: KB human nasopharyngeal cancer; experiment: Inhibition of tumor cell proliferation at 10 μM, Model D: SRB method; assay type: cell-based; conditions: read-out: Model D Inhibitory rate (%)
Excerpt: as §1

[5] = test system: human leukaemia HL-60 cells; experiment: EC50 on proliferation of HL-60 cells (MTT, 48 h); assay type: cell-based; conditions: read-out: HL-60 EC50 (nmol)
Protocol: (§2) EC50 values of the compounds according to the present invention on the proliferation of human leukaemia HL-60 cells and Bel-7402 cells were determined by using the following method, and the results are shown in Table 2.
Testing method for EC50 values on the human leukaemia HL-60 cells: The human leukaemia HL-60 cells were cultured in vitro. The cells were collected after growth to logarithmic phase, and centrifugated at 1000 rpm for 5 min. The supernatant was discarded and the cells were suspended in an appropriate amount of medium. The cell concentration was adjusted to 1.2×10^4/mL. The cells were seeded into 96-well culture plates in 90 μL per well. For each well of the drug treatment groups, 10 μL of medium-diluted drug was added, whereas for the blank control groups, the same amount of medium was added. Every testing drug was set up for three parallel wells, and also three control wells with only testing drugs (without cell) were set up. Negative control groups were medium containing 0.5% DMSO. After the plate was incubated in an incubator for 48 h, 10 μL of 5 mg/mL MTT was added into each well, and then the plate was placed for 3 h at 37° C. 100 μL of ternary solution (5% SDS, 10 mM HCl, 5% isopropanol) was added into each well, and the plate was kept at 37° C. overnight. The absorbance (OD) was measured at 595 nm/620 nm. The EC50 values were calculated by using Prism Graphpad statistical software.

[6] = test system: Bel-7402 cells; experiment: EC50 on proliferation of Bel7402 cells (SRB, 48 h); assay type: cell-based; conditions: Homo sapiens, read-out: Bel7402 EC50 (nmol)
Protocol: as §2
Testing method for ED50 values on the human Be17402ce11: After the cells were incubated with the addition of the drugs for 48 h, the plates were taken out. 50 μL of pre-cooled 500 g/L trichloroacetic acid was added into each well. The plates were kept in 4° C. refrigerator for 1 h after standing for 5 min, taken out, washed with deionized water for 5 times, and dried in the air. After the plates were completely dried, 100 μL of 0.4% SRB (formulated in 1% acetic acid) was added into each well. Following staining for 20 min, the staining solution was discarded, and the residue was washed with 1% acetic acid for 5 times to remove the uncombined dye. After being dried in the air, the residue was dissolved in 150 μL of 10 mmol/L unbuffered
Tris basic solution (pH=10.5), and oscillated in an oscillator for 5 min. The absorbance of each well at 490 nm was measured with TECAN enzyme mark instrument. The cells in background control plates were treated in the same way for measuring OD490. The EC50 values were calculated by using Prism Graphpad statistical software.

[7] = test system: SK-BR-3 (cell line of erbB2 over-expression); experiment: MTT assay on erbB2 over-expressing cell line (72 h); assay type: cell-based; conditions: Homo sapiens, read-out: SK-BR-3 (μM), EC50
Protocol: (§3) Experimental operations: Human breast cancer SK-BR-3, MDA-MB-468 cells and human colon cancer HCT 116 cells were cultured in vitro. The cells were collected after growth to logarithmic phase, and centrifugated at 1000 rpm for 5 min. The supernatant was discarded, and the cells were suspended with an appropriate amount of medium. The cell concentration was adjusted to 3.5×10^3/mL. Then the cells were seeded into 96-well culture plates in 100 μL per well, and placed in an incubator (37° C., 5% CO2) to be incubated for 24 h. The testing drugs were added, and the negative control group was added DMSO with the final concentration of 5%. Each group has three parallel wells. After being incubated in the incubator for 72 h, 20 μL of 5 mg/mL MTT was added into each well, and the plate was placed at 37° C. for 4 h. 200 μL of DMSO was added into each well, and then the plate was oscillated in an oscillator for 30 min. […] The EC50 values were calculated by using Prism Graphpad statistical software.

[8] = test system: MDA-MB-468 (cell line of EGFR over-expression); experiment: MTT assay on EGFR over-expressing cell line (72 h); assay type: cell-based; conditions: Homo sapiens, read-out: MDA-MB-468 (μM), EC50
Protocol: as §3

[9] = test system: HCT 116 (cell line of low-expression of both EGFR and erbB2); experiment: MTT assay on control cell line with low EGFR and erbB2 expression (72 h); assay type: cell-based; conditions: Homo sapiens, read-out: HCT 116 (μM), EC50
Protocol: as §3

Row | melting point | EC50 ([7]; SK-BR-3 cells, MTT, 72 h) | EC50 ([8]; MDA-MB-468 cells, MTT, 72 h) | EC50 ([9]; HCT 116 cells, MTT, 72 h) | EC50 ([7]; SK-BR-3, 72 h) | EC50 ([8]; MDA-MB-468, 72 h) | EC50 ([9]; HCT-116, 72 h) | SMILES | inhibition at 10 µM [1] | inhibition at 10 µM [2] | inhibition at 10 µM [3] | inhibition at 10 µM [4] | EC50 [5] | EC50 [6]
1 | 42 to 43 °C | – | – | – | – | – | – | OC1CCSC(=S)N1Cc1ccco1 (centres unmarked) [Compound 1, 3-(furan-2-ylmethyl)-4-hydroxy-1,3-thiazinane-2-thione] | 28.4% | 20% | 43.1% | 20.1% | – | –
2 | 50 to 52 °C | – | – | – | – | – | – | COC(=O)CCSC(=S)NCc1ccco1 [Compound 2, 2-(methoxycarbonyl)ethyl(furan-2-ylmethyl)dithiocarbamate] | 19.3% | 16.4% | -1.69% | 3.8% | – | –
3 | 88 to 89 °C | – | – | – | – | – | – | CC1=CSC(=S)N(Cc2ccco2)C1(C)O (centres unmarked) [Compound 4, 3-(furan-2-ylmethyl)-4-hydroxy-4,5-dimethyl-3,4-dihydro-2H-1,3-thiazine-2-thione] | 23.7% | 15.2% | 2.91% | 5.76% | – | –
4 | 43 to 45 °C | – | – | – | – | – | – | C[S+]([O-])CCSC(=S)NCc1ccco1 (centres unmarked) [Compound 7, 2-(methylsulfinyl)ethyl(furan-2-ylmethyl)dithiocarbamate] | 11.2% | 16% | -8.68% | 4.07% | – | –
5 | 51 to 52 °C | – | – | – | – | – | – | [O-][S+](CCSC(=S)NCc1ccco1)Cc1ccccc1 (centres unmarked) [Compound 8, 2-(benzylsulfinyl)ethyl(furan-2-ylmethyl)dithiocarbamate] | 20.9% | 12.3% | 56.9% | 10.5% | – | –
6 | 56 to 57 °C | – | – | – | – | – | – | OC1CCSC(=S)N1Cc1cccnc1 (centres unmarked) [Compound 9, 4-hydroxy-3-(pyridin-3-ylmethyl)-1,3-thiazinane-2-thione] | 38.9% | 20.3% | 79.5% | 61.3% | – | –
7 | 58 to 60 °C | 2.84 µM | 9.54 µM | 10.4 µM | – | – | – | N#CCCSC(=S)NCc1cccnc1 [Compound 11, 2-cyanoethyl(pyridin-3-ylmethyl)dithiocarbamate] | 72.3% | 60.4% | 86.1% | 93.7% | 0.00146 µM | 0.0272 µM
8 | 71 to 72 °C | – | – | – | – | – | – | CC1=CSC(=S)N(Cc2cccnc2)C1(C)O (centres unmarked) [Compound 12, 4-hydroxy-4,5-dimethyl-3-(pyridin-3-ylmethyl)-3,4-dihydro-2H-1,3-thiazine-2-thione] | 79.9% | 43.9% | 8.66% | 15.2% | – | –
9 | 49 to 50 °C | – | – | – | – | – | – | OB(O)CCSC(=S)NCc1cccnc1 [Compound 14, 2-boronoethyl(pyridin-3-ylmethyl)dithiocarbamate] | 41.4% | 68.6% | 91% | 94.5% | – | –
10 | – | 0.655 µM | 0.953 µM | 16.2 µM | – | – | – | [O-][S+](CCSC(=S)NCc1cccnc1)Cc1ccccc1 (centres unmarked) [Compound 16, 2-(benzylsulfinyl)ethyl(pyridin-3-ylmethyl)dithiocarbamate] | 26.1% | 72.3% | 96.1% | 93.1% | – | –
11 | – | – | – | – | 4.35 µM | 19.6 µM | 42.4 µM | CS(=O)(=O)CCNCc1ccc(-c2ccc3ncnc(Nc4ccc(OCc5cccc(F)c5)c(Cl)c4)c3c2)o1 [Lapatinib, reference compound] | – | – | – | – | – | –

Row | SMILES | melting point | EC50 ([7]; SK-BR-3 cells, MTT, 72 h) | EC50 ([8]; MDA-MB-468 cells, MTT, 72 h) | EC50 ([9]; HCT 116 cells, MTT, 72 h) | EC50 ([7]; SK-BR-3, 72 h) | EC50 ([8]; MDA-MB-468, 72 h) | EC50 ([9]; HCT-116, 72 h) | inhibition at 10 µM [1] | inhibition at 10 µM [2] | inhibition at 10 µM [3] | inhibition at 10 µM [4] | EC50 [5] | EC50 [6]
12 | CCCCOC(=O)CCSC(=S)NCc1cccnc1 [Compound 47, 2-(butoxycarbonyl)ethyl (pyridin-3-ylmethyl)dithiocarbamate] | – | 4.46 µM | 12.8 µM | 7.83 µM | – | – | – | – | – | – | – | 0.0254 µM | 0.00636 µM
